Assay results: publication PMC10780633, “Novel Multi-Target Agents Based on the Privileged Structure of 4-Hydroxy-2-quinolinone” (Molecules, 2023)
pIC50: −log10 of the molar value.

Experiments:
[1] = ABTS radical cation decolorization assay; settings: 0.1 mM
Description: (§1) In this work, the carboxamides 3a–3u, the quinolinone–cinnamic or benzoic acid hybrids 11a–11g and the reverse amides 16a–16c were tested for their antioxidant activity via five in vitro techniques; (i) the interaction with the stable free radical 2,2-diphenyl-1-picrylhydrazyl (DPPH); (ii) the inhibition of lipid peroxidation; (iii) the hydroxyl radical scavenging ability; (iv) the 2,2-azino-bis(3-ethylbenzothiazoline-6-sulfonic acid (ABTS) radical cation (ABTS·^+) reduction; and (v) the superoxide anion radical scavenging ability.
The experimental technique used in this section was performed according to the methods of Pontiki et al.. The results were compared to the appropriate standard inhibitor Trolox.

soybean lipoxygenase = molecular target: T1, soybean lipoxygenase (Glycine max, UniProt P08170); assay: Soybean LOX inhibition in vitro (UV absorbance-based assay); assay type: biochemical; settings: for inhibition at 100 µM / Inhibition of Soybean Lipoxygenase % at 0.1 mM: 0.1 mM
T1 construct: purchased Sigma Chemical, Co. (St. Louis, MO, USA)
T1 sequence (P08170 1-839): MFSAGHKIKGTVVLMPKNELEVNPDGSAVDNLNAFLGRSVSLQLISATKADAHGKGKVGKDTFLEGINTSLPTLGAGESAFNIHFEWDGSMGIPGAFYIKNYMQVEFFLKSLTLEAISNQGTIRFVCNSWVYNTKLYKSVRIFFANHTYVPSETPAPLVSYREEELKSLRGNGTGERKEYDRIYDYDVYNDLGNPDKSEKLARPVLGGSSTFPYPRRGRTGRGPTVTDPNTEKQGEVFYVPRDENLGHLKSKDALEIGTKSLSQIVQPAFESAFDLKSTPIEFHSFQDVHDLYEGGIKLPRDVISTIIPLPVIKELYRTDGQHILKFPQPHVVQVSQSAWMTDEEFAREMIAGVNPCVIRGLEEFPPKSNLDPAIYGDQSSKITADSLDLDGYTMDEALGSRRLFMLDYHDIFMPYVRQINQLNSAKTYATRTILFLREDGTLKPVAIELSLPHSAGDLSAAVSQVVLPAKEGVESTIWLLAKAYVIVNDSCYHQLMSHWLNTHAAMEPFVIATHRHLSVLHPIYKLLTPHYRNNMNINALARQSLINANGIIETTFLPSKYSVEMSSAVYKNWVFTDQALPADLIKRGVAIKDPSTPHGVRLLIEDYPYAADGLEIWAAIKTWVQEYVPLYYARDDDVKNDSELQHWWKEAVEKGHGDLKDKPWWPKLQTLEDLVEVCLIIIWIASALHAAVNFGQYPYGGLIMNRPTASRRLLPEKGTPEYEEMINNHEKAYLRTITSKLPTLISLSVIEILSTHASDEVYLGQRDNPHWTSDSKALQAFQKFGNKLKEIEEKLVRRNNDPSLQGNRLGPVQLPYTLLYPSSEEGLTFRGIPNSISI
Description: For this study, the UV absorbance-based soybean LOX assay was used.
The assay for the determination of the inhibition of soybean LOX was performed according to the methods of Hadjipavlou-Litina et al., which we have also used in our previous works.

[2] = Interaction with the stable free radical DPPH (reducing activity); settings: for Interaction with the Free Radical DPPH (%): 100 μM; for DPPH radical scavenging activity, time not specified: reaction time not given
Description: as §1

[3] = Competition with DMSO for hydroxyl radicals; settings: 0.1 mM
Description: as §1
The assay was performed according to the methods of Pontiki et al. Trolox was used as a reference compound [78].

[4] = Inhibition of lipid peroxidation of linoleic acid induced by AAPH radical; settings: 100 μM
Description: as §1
The assay for the determination of the inhibition of linoleic acid peroxidation induced by the free radical initiator […](2-amidinopropane) dihydrochloride (AAPH) was performed according to the methods of Hadjipavlou-Litina et al., which we have also used in our previous works.

[5] = Non-enzymatic superoxide anion radical scavenging assay (PMS); settings: 0.1 mM
Description: as §1
The experimental technique used for this assay was performed according to our previous works. Caffeic acid was used as an appropriate standard.

[6] = parameters: method as in PMID 16955399, PMID 26834836; settings: more potent than linomide; cited from earlier work

Row | pIC50 (soybean lipoxygenase) | inhibition at 100 µM (soybean lipoxygenase) [%] | Inhibition of Soybean Lipoxygenase % at 0.1 mM (soybean lipoxygenase) | melting point [°C] | SMILES | ABTS% (ABTS radical cation decolorization) [1] | Interaction with the Free Radical DPPH (%) ([2]; 20 min) | Interaction with the Free Radical DPPH (%) ([2]; 60 min) | DPPH radical scavenging activity, time not specified [2] | OH% (hydroxyl radical scavenging) [3] | Inhibition of Lipid Peroxidation of Linoleic Acid Induced by AAPH Radical (%) [4] | PMS% (superoxide anion radical scavenging) [5] | Anti-tumor potency relative to linomide [6]
1 | 4.35 |  |  |  | Cc1ccc(NC(=O)c2c(O)c3ccccc3n(C)c2=O)cc1 [Compound 3l, 4-hydroxy-1-methyl-2-oxo-N-(p-tolyl)-1,2-dihydroquinoline-3-carboxamide] | no | 2.6 | 2.6 | inactive | 53.7% | no | no | 
2 |  | 15 |  |  | Cn1c(=O)c(C(=O)Nc2ccc(F)cc2)c(O)c2ccccc21 [Compound 3m, N-(4-fluorophenyl)-4-hydroxy-1-methyl-2-oxo-1,2-dihydroquinoline-3-carboxamide] | 12.4% | 3.1 | 1.2 | inactive | 94.0% | 11.3% | no | 
3 | 4.07 |  |  |  | O=C(NCCc1ccc(O)cc1)c1c(O)c2ccccc2n(-c2ccccc2)c1=O [Compound 3n, 4-hydroxy-N-(4-hydroxyphenethyl)-2-oxo-1-phenyl-1,2-dihydroquinoline-3-carboxamide] | no | 13.9 | 19.2 |  | 14.9% | 100% | no | 
4 |  |  | no |  | Cn1c(=O)c(C(=O)NCCc2ccc(O)cc2)c(O)c2ccccc21 [Compound 3o, 4-hydroxy-N-(4-hydroxyphenethyl)-1-methyl-2-oxo-1,2-dihydroquinoline-3-carboxamide] | 20.6% | 20.8 | 8.0 |  | 44.3% | 100% | no | 
5 |  | 37.5 | 37.4% |  | Cc1ccc(NC(=O)c2c(O)c3ccccc3n(-c3ccccc3)c2=O)cc1 [Compound 3r, 4-hydroxy-2-oxo-1-phenyl-N-(p-tolyl)-1,2-dihydroquinoline-3-carboxamide] | no | 12.1 | 1.2 | inactive | 50.7% | 17.1% | no | 
6 | 5.00 |  |  |  | O=C(Nc1ccc(F)cc1)c1c(O)c2ccccc2n(-c2ccccc2)c1=O [Compound 3s, N-(4-fluorophenyl)-4-hydroxy-2-oxo-1-phenyl-1,2-dihydroquinoline-3-carboxamide] | no | 21.2 | 8.1 | inactive | 100% | 28.9% | no | 
7 |  |  | inactive and no |  | Cn1c(=O)c(C(=O)Nc2ccncc2)c(O)c2ccccc21 [Compound 3t, 4-hydroxy-1-methyl-2-oxo-N-(pyridin-4-yl)-1,2-dihydroquinoline-3-carboxamide] | no | 19.7 | 9.5 |  | inactive and no | 100% | no | 
8 |  |  |  | 161 | CCn1c(=O)c(C(=O)NCCN)c(O)c2ccccc21 [Compound 7, N-(2-Aminoethyl)-1-ethyl-4-hydroxy-2-oxo-1,2-dihydroquinoline-3-carboxamide] |  |  |  |  |  |  |  | 
9 |  |  |  |  | COc1cccc2c1c(O)c(C(=O)N(C)c1ccc(C(F)(F)F)cc1)c(=O)n2C [Tasquinimod] |  |  |  |  |  |  |  | 30–60 times
